In PMC9605374 (Marine Drugs, 2022):

Legend:
PC3-DR = test: MTT assay, cell viability; type: cell-based, human
Text: To examine the anticancer potential and selectivity of NB, we used a panel of six human prostate cancer cell lines, harboring different levels of treatment resistance to representatively reflect the heterogeneity of the disease. […] Additionally, four human noncancer cells lines were utilized in order to determine the selectivity of NB towards prostate cancer cells, i.e., prostate noncancer PNT2 and RWPE-1 cells, human embryonic kidney HEK 293T cells, and human fibroblasts MRC-9. The different cell lines were treated with NB and the cell viability was examined using MTT assay (Figure 1). The mean IC50 of NB and docetaxel (used as a reference substance) in noncancerous cell lines was divided by the mean IC50 in the prostate cancer cell lines to determine the selectivity index (SI).
The MTT assay was used to monitor the effect of the drugs on cell viability in terms of metabolic activity, as previously reported. First, preincubation of the cells in 96-well plates (6 × 10^3 cells/well in 100 μL/well) was performed overnight in the correspondent culture medium. Next, the medium was exchanged for fresh medium containing the investigated compounds or a vehicle (100 μL/well). Cells were then incubated for 48 h, unless otherwise stated. Then, 10 μL/well of 3-(4,5-dimethylthiazol-2-yl)-2,5-diphenyltetrazolium bromide reagent (MTT, 5 mg/mL) were added. After 2–4 h of additional incubation the media was removed, and the plates were dried. Finally, 50 μL/well of DMSO were added to solve the formed formazan crystals produced by the metabolic active cells and Infinite F200PRO reader (TECAN, Männedorf, Switzerland) was used to measure the cell viability. The results were proceeded with a GraphPad Prism software v.9.1.1 (GraphPad Software, San Diego, CA, USA). Cells treated with the solvent of the drugs alone were used as a control (100% alive cells). The effect of the drugs on cell viability is represented as IC50.

22Rv1 = test: Colony formation assay; type: cell-based, human; conditions: 22Rv1, 48 h treatment then 14 days, nanomolar concentrations
Protocol: (§1) Next, we investigated the effect of NB on the ability of cancer cells to form colonies from single cells using a colony formation assay and a preplating mode. […] However, this speculation awaits further confirmation in vivo.
(§2) Figure 3 Colony formation assay. The human cancer cells were seeded in 6-well plates and treated for 48 h with the indicated concentrations of NB. Then, the media was exchanged, and the plates were incubated for 14 days, which was followed by fixation, staining, and counting. Number of replicates n = 3. Statistical significance: * p < 0.05 (ANOVA).

VCaP = test: Colony formation assay; type: cell-based, human; conditions: 48 h treatment then 14 days, nanomolar concentrations
Protocol: as §1, §2

[1] = tested on: serine-/threonine kinases (JNK1/2, p38) in 22Rv1 cells; test: Kinome profiling of serine/threonine kinases (PamGene), upstream kinase analysis; type: cell-based, human; conditions: 22Rv1, 1 µM and 10 µM, 2 h
Text: To further investigate the mechanism of anticancer action of NB, we examined the effects of the compound on serine-/threonine protein kinases. Protein kinases modify target molecules (proteins) via phosphorylation, thus, altering their activity. A subgroup of these kinases—serine-/threonine kinases (STK)—play a key role in various essential processes related to cell death and cell survival. Consequently, protein kinases, in general, are important target molecules for various anticancer drugs. Specifically, modification of STKs’ activity has been exploited as a mechanism of action. Several clinically approved drugs, such as sunitinib, palbociclib, cobimetinib, and axitinib, utilize this mechanism to execute their therapeutic action. Thus, we performed functional kinomics using the microarray-based PamGene technology. This method allows a systematic examination of the changes in STK activity (http://www.pamgene.de, accessed on 22 January 2022, Figure 5A–D). We used two different concentrations, specifically, 1 µM and 10 µM, in order to cover different biological effects, which may take place at the different drug doses (Figure 5A). […]
Figure 5 Kinome profiling of serine/threonine kinases (STKs). 22Rv1 cells were incubated with NB for 2 h; the proteins were extracted and STK were analyzed using functional kinome profiling. […]

caspase-3 in 22Rv1 cells = test: Western blotting, caspase-3 cleavage; type: cell-based, human; conditions: 22Rv1, 48 h after drug exposure
Protocol: We examined several time points, specifically, 15 min, 2 h, and 48 h (Figure 6).
Figure 6 Validation of kinome analysis data. 22Rv1 cells were treated with 1 µM or 10 µM of NB for the indicated time. The protein expression was analyzed by Western blotting using total protein load equal to 30 µg/slot. α-Tubulin was used as a loading control.
The Western blot assay was executed as previously described: 1 × 10^6 cells were seeded in Petri dishes (ø 6 cm, 5 mL/dish) and incubated overnight. On the next day, the cells were treated with the compounds in fresh culture media (5 mL/dish) for the indicated time. Next, cells were harvested with a cell scraper and lysed in lysis buffer including protease and phosphatase inhibitors cocktail (Roche, Mannheim, Germany). Cell debris were removed from the protein lysates via centrifugation. Afterwards, the cell-free protein mixtures were separated in gradient ready-made Mini-PROTEAN® TGX Stain-Free^TM gels (Bio-Rad, Hercules, CA, USA) using SDS-PAGE (sodium dodecylsulfate polyacrylamide gel electrophoresis). Then, the proteins were blotted onto ø 0.2 µm pore PVDF membrane. The membrane was blocked and consequently treated with primary and secondary antibodies for protein detection. The signals were detected using the ECL chemiluminescence system (Thermo Scientific, Rockford, IL, USA).

[2] = parameters: method as in PMID 27355960; conditions: no hemolytic activity; cited from earlier work

Q: Which results are given for `COc1ccc(C2SSC34CC5(O)C(Cl)C=CC(O)C5ON3C(=O)C2N(C)C4=O)c(O)c1OC` (stereo not shown) [NB, N-methylpretrichodermamide B]?
A: IC50 in PC3-DR compared to the parental PC3 cells (PC3-DR; 48 h): twofold lower; IC50 (PC3-DR; Homo sapiens, PC3-DR, 48 h of treatment, mean ± SD): 3.63 ± 1.03 µM; colony-formation ability (22Rv1): inhibit the colony-formation ability; colony-formation ability (VCaP): inhibit the colony-formation ability; upstream kinase analysis, JNK1/2 and p38 kinases [1]: very likely upregulated; caspase-3 cleavage (caspase-3 in 22Rv1 cells): caspase-3 cleavage that was observed; IC50 [2]: ≥ 100 µM
